Experimental findings from US9777039B2, “Somatostatin analogs and dimers thereof” (Ipsen Pharma S.A.S., priority 2012, dated 2017) are described below.

For test [1], the target named is T1, hSSTR2 (Homo sapiens, UniProt P30874).
T1 construct: expressed in transfected cells
The experiment in a line: Somatostatin receptor radioligand binding assay, hSSTR2. As to the method: (§1) The affinities of a test compound for the human somatostatin receptors were determined by radioligand binding assays in CHO-K1 cells stably transfected with each of the somatostatin receptor subtypes, hSSTR1-5. The cDNA coding sequences of the hSSTR1 (GenBank accession No. NM_001049.1), hSSTR2 (GenBank accession No. XM_012697.1), hSSTR3 (GenBank accession No. XM_009963.1), hSSTR4 (GenBank accession No. NM_001052.1) and hSSTR5 (GenBank accession No. XM_012565.1) were subcloned into the mammalian expression vector pcDNA3.1 (Life Technologies). Clonal cell lines stably expressing each of the somatostatin receptors were obtained by transfection into CHO-K1 cells (ATCC) and subsequently selected with culture media containing 0.8 mg/mL of G418 (Life Technologies).
(§2) Membranes for in vitro receptor binding assays were obtained by the following procedures. CHO-K1 cells expressing one of the somatostatin receptors were homogenized in ice-cold buffer with 10 mM Tris-HCl, 5 mM EDTA, 3 mM EGTA, 1 mM phenylmethylsuphonyl fluoride, pH 7.6, using Polytron PT10-35GT (Kinematica) at 18,000 rpm for 30 seconds and centrifuged at 500×g for 10 minutes. The supernatant containing the plasma membranes was centrifuged at 100,000×g for 30 minutes and the pellet was resuspended in buffer containing 20 mM glycine-glycine, 1 mM MgCl2, 250 mM sucrose, pH 7.2, for storage at −80° C.
For the hSSTR1, 2 and 5 assays, membranes and various concentrations of test compounds were incubated in 96-well plates for 60 minutes at 25° C. with 0.05 nM [^125I-Tyr^11]-SRIF-14 (for hSSTR1; PerkinElmer Life Science), 0.05 nM [^125I-Tyr]-seglitide (for hSSTR2; PerkinElmer Life Science) or 0.05 nM [^125I-Tyr]-DPhe-cyclo(Cys-Tyr-DTrp-Lys-Val-Cys)-Thr-NH2 (for hSSTR5; PerkinElmer Life Science) in 50 mM HEPES, 0.2% BSA, 0.1 mM MgCl2, pH 7.5.
The incubations were terminated by rapid filtration through GF/C glass microfiber filter plates (pre-wet with 0.3% polyethyleneimine and 0.1% BSA) using a 96-well cell harvester (Brandel). Plates were washed six times with 1 mL/well aliquots of ice-cold buffer containing 50 mM Tris buffer, pH 7.7. Specific binding is defined as the total radioligand bound minus the bound in the presence of 1000 nM SRIF-14.

Test [2] deals with T2, hSSTR4 (Homo sapiens, UniProt P31391).
T2 construct: expressed in transfected cells; membranes
The experiment in a line: Somatostatin receptor radioligand binding assay, hSSTR4. The settings on record: CHO-K1 cell membranes, [125I-Tyr11]-SRIF-14; read-out: hSSTR4 Ki (nM) ± SEM. As to the method: as §1
as §2, with “C. […]” for “C.”

Test [3] addresses T3, hSSTR1 (Homo sapiens, UniProt P30872).
T3 construct: expressed in transfected cells; membranes
The experiment in a line: Somatostatin receptor radioligand binding assay, hSSTR1. The settings on record: CHO-K1 cell membranes, [125I-Tyr11]-SRIF-14; read-out: hSSTR1 Ki (nM) ± SEM. As to the method:
as §1
as §2, with “C. […]” for “C.”

In test [4] the target is T4, hSSTR3 (Homo sapiens, UniProt P32745).
T4 construct: expressed in transfected cells; membranes
The experiment in a line: Somatostatin receptor radioligand binding assay, hSSTR3. To be noted: CHO-K1 cell membranes, [125I-Tyr11]-SRIF-14; read-out: hSSTR3 Ki (nM) ± SEM. As to the method: as §1
as §2, with “C. […]” for “C.”

Test [5] addresses T5, hSSTR5 (Homo sapiens, UniProt P35346).
T5 construct: expressed in transfected cells; membranes
The experiment in a line: Somatostatin receptor radioligand binding assay, hSSTR5. To be noted: CHO-K1 cell membranes, [125I-Tyr]-DPhe-cyclo(Cys-Tyr-DTrp-Lys-Val-Cys)-Thr-NH2; read-out: hSSTR5 Ki (nM) ± SEM. As to the method: as §1
as §2, with “C. […]” for “C.”

For test [6], the target named is T1, hSSTR2. The experiment in a line: Intracellular calcium mobilization assay (FLIPR Calcium 4 assay kit). It counts as cell-based. To be noted: for Emax: maximal effect in percentage of the maximal effect of SRIF-14, read-out: hSSTR2 % Emax ± SEM. As to the method: The ability of select compounds according to the present invention to activate hSSTR2 was determined by the intracellular calcium mobilization assay using FLIPR Calcium 4 assay kit (Molecular Devices).
Cells expressing hSSTR2 were plated in 384-well microplates in tissue culture media and incubated for 16-24 hours at 37° C. in a humidified atmosphere with 5% CO2. Medium was replaced by loading buffer containing Hank's buffered saline, 20 mM HEPES, 2.5 mM probenecid and Calcium 4 dye, and the plates were incubated at 37° C. for 60 minutes. Various concentrations of the test compounds were applied to the cells during the fluorescence measurement with excitation at 485 nm and emission at 525 nm using the Flexstation III microplate reader (Molecular Devices).
The half maximal effective concentrations (EC50) were calculated by fitting data to sigmoid dose-response curves using GraphPad Prism version 5.03 (GraphPad Software, San Diego, Calif., USA). % Emax values represent the maximal effect of the test compound in percentage of the maximal effect of SRIF-14.
Reference Compound No. A, whose chemical name and corresponding structure are provided in Table V, was synthesized and its ability to activated hSSTR2 was determined by the same intracellular calcium mobilization assays using FLIPR Calcium 4 assay kit (Molecular Devices) and under the same experimental conditions for the test compounds, as described hereinabove, and the results thereof are provided in Table VI.
A general note: Calcium assays in cells follow changes in intracellular calcium, usually with a dye or a luminescent sensor.

[7] abbreviates: CHO-K1 cell membranes, [125I-Tyr]-seglitide, read-out: hSSTR2 Ki (nM) ± SEM.
The mark [8] stands for this setting: cells expressing hSSTR2, calcium mobilization, read-out: hSSTR2 EC50 (nM) ± SEM.

Structures are written as SMILES. Read-outs that look alike come from different tables or passages of the source. Residues, ends and D or L forms follow the SMILES beside them.

T1 sequence (P30874 whole entry): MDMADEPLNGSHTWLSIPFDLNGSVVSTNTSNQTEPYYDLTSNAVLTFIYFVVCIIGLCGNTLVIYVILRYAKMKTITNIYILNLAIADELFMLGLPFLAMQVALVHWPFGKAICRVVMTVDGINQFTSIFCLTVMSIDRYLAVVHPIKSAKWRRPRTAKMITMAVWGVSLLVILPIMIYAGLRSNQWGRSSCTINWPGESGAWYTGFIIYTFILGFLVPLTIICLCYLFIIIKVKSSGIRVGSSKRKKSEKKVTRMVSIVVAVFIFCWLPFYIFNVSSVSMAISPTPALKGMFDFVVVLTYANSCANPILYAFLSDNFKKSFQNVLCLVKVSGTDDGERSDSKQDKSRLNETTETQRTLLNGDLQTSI
T4 sequence (P32745 whole entry): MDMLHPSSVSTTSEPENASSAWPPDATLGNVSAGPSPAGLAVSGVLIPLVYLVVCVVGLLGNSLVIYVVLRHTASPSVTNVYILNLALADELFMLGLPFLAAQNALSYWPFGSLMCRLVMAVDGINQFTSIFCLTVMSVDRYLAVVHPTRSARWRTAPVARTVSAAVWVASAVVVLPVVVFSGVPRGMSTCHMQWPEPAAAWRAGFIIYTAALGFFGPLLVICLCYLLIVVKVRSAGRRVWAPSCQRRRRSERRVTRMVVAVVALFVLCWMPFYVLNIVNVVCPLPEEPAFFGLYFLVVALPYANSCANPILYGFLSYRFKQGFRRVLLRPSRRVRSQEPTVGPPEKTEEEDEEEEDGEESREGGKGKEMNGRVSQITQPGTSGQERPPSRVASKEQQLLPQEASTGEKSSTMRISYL
T5 sequence (P35346 whole entry): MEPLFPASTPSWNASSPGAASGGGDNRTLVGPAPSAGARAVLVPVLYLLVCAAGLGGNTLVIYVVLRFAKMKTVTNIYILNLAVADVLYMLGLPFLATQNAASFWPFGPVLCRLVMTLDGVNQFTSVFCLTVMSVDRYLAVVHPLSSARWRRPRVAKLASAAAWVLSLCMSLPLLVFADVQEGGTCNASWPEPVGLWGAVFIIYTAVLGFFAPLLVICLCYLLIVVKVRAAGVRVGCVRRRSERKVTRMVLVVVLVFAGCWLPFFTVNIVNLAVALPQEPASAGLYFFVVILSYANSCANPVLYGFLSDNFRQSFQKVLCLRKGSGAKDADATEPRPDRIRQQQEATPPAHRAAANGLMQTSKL
T2 sequence (P31391 whole entry): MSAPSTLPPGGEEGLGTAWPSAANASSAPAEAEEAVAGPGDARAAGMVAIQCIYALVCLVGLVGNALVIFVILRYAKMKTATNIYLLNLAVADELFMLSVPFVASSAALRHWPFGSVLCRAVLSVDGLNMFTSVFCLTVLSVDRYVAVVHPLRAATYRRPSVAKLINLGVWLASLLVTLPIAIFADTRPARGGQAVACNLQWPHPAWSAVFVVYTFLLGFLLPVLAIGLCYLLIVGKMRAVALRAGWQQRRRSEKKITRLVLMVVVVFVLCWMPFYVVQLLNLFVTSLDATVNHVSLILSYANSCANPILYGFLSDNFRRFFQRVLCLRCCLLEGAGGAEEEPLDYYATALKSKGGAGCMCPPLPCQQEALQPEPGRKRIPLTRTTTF
T3 sequence (P30872 whole entry): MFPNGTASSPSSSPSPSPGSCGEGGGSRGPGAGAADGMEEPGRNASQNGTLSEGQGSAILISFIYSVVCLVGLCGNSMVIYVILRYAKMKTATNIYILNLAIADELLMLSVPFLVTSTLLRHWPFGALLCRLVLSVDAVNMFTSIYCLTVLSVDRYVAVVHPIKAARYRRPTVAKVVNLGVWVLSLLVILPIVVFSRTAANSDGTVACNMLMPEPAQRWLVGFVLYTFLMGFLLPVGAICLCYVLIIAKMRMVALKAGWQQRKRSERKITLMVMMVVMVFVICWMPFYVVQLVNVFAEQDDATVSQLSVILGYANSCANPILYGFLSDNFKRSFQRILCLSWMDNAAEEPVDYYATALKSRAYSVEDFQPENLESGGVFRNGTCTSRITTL

The term Ki denotes a dissociation constant, usually derived from enzyme kinetics or from competition with a known ligand. For orientation: EC50 means the concentration giving half of the maximal effect. Usually Emax stands for the maximal effect, on the per cent scale that the assay sets. As for `C[C@@H](O)[C@@H]1NC(=O)[C@H](CCCCN)NC(=O)[C@@H](Cc2c[nH]c3ccccc23)NC(=O)[C@H](Cc2ccncc2)NC(=O)[C@H](Cc2ccccc2)NC(=O)[C@H](CCCNC(=N)N)NC(=O)[C@H](N)CCCCNC(=O)[C@H](Cc2ccccc2)NC1=O` [Compound 1, cyclo(DLys-Arg-Phe-4Pal-DTrp-Lys-Thr-Phe)] (HELM PEPTIDE1{[dK].R.F.[O=C([C@H](Cc1ccncc1)N[*:1])[*:2]].[dW].K.T.F}$PEPTIDE1,PEPTIDE1,1:R3-8:R2$$$V2.0), the Ki in test [1] (setting [7]) is 0.47 ± 0.03 nM; in test [2], 76.3 ± 12.6 nM; in test [3], over 1000 nM; in test [4] it was 16.3 ± 7.1 nM; in test [5], 0.31 ± 0.1 nM. Moreover, the EC50 in test [6] (setting [8]) is 9.1 ± 3.9 nM. Also, in test [6], the Emax is 96.3 ± 5.5%.

As for `C[C@@H](O)[C@@H]1NC(=O)[C@H](CCCCN)NC(=O)[C@@H](Cc2c[nH]c3ccccc23)NC(=O)[C@H](Cc2ccncc2)NC(=O)[C@H](Cc2ccccc2)NC(=O)[C@H](CCCNC(=N)N)NC(=O)[C@H](NC[C@H](Cc2ccc(O)cc2)NC(=O)CCc2cn(CC(=O)N[C@H](CN[C@@H]3CCCCNC(=O)[C@H](Cc4ccccc4)NC(=O)[C@H]([C@@H](C)O)NC(=O)[C@H](CCCCN)NC(=O)[C@@H](Cc4c[nH]c5ccccc45)NC(=O)[C@H](Cc4ccncc4)NC(=O)[C@H](Cc4ccccc4)NC(=O)[C@H](CCCNC(=N)N)NC3=O)Cc3ccc(O)cc3)nn2)CCCCNC(=O)[C@H](Cc2ccccc2)NC1=O` [Compound 5, 1-[(ethan-2-oyl)-Tyr-psi(CH2NH)-cyclo(DLys-Arg-Phe-4Pal-DTrp-Lys-Thr-Phe)],4-[(propan-3-oyl)-Tyr-psi(CH2NH)-cyclo(DLys-Arg-Phe-4Pal-DTrp-Lys-Thr-Phe)]-1,2,3-triazole], the Ki in test [1] came to 0.08 nM. Moreover, in test [6], the EC50 was 3.3 nM and the Emax came out at 88.6 ± 1.1%.

`C[C@@H](O)[C@@H]1NC(=O)[C@H](CCCCN)NC(=O)[C@@H](Cc2c[nH]c3ccccc23)NC(=O)[C@H](Cc2ccccc2)NC(=O)[C@H](Cc2ccccc2)NC(=O)[C@H](CCCNC(=N)N)NC(=O)[C@H](NC[C@H](Cc2ccc(O)cc2)NC(=O)CCc2cn(CC(=O)N[C@H](CN[C@@H]3CCCCNC(=O)[C@H](Cc4ccc(F)cc4)NC(=O)[C@H]([C@@H](C)O)NC(=O)[C@H](CCCCN)NC(=O)[C@@H](Cc4c[nH]c5ccccc45)NC(=O)[C@H](Cc4ccccc4)NC(=O)[C@H](Cc4ccccc4)NC(=O)[C@H](CCCNC(=N)N)NC3=O)Cc3ccc(O)cc3)nn2)CCCCNC(=O)[C@H](Cc2ccc(F)cc2)NC1=O` [Compound 6, 1-[(ethan-2-oyl)-Tyr-psi(CH2NH)-cyclo(DLys-Arg-Phe-Phe-DTrp-Lys-Thr-4FPhe)],4-[(propan-3-oyl)-Tyr-psi(CH2NH)-cyclo(DLys-Arg-Phe-Phe-DTrp-Lys-Thr-4FPhe)]-1,2,3-triazole] came in with an inhibition constant (Ki) in test [1] of 0.38 nM. For the same compound, in test [6], the EC50 turned out to be 74.6 ± 15.6 nM and the Emax came out at 93.6 ± 4.1%.

In test [1], `C[C@@H](O)[C@@H]1NC(=O)[C@H](CCCCN)NC(=O)[C@@H](Cc2c[nH]c3ccccc23)NC(=O)[C@H](Cc2ccccc2)NC(=O)[C@H](Cc2ccccc2)NC(=O)[C@H](CCCNC(=N)N)NC(=O)[C@H](NC[C@H](Cc2ccc(O)cc2)NC(=O)CCc2cn(CC(=O)N[C@H](CN[C@@H]3CCCCNC(=O)[C@H](Cc4ccc(O)cc4)NC(=O)[C@H]([C@@H](C)O)NC(=O)[C@H](CCCCN)NC(=O)[C@@H](Cc4c[nH]c5ccccc45)NC(=O)[C@H](Cc4ccccc4)NC(=O)[C@H](Cc4ccccc4)NC(=O)[C@H](CCCNC(=N)N)NC3=O)Cc3ccc(O)cc3)nn2)CCCCNC(=O)[C@H](Cc2ccc(O)cc2)NC1=O` [Compound 7, 1-[(ethan-2-oyl)-Tyr-psi(CH2NH)-cyclo(DLys-Arg-Phe-Phe-DTrp-Lys-Thr-Tyr)],4-[(propan-3-oyl)-Tyr-psi(CH2NH)-cyclo(DLys-Arg-Phe-Phe-DTrp-Lys-Thr-Tyr)]-1,2,3-triazole] came in with a Ki of 0.17 nM. Also, in test [6], the EC50 was determined as 28.5 ± 11.5 nM and the Emax is 97.4 ± 1.2%.

As to `C[C@@H](O)[C@@H]1NC(=O)[C@H](CCCCN)NC(=O)[C@@H](Cc2c[nH]c3ccccc23)NC(=O)[C@H](Cc2ccncc2)NC(=O)[C@H](Cc2ccccc2)NC(=O)[C@H](CCCNC(=N)N)NC(=O)[C@H](NC[C@@H](N)Cc2ccc(O)cc2)CCCCNC(=O)[C@H](Cc2ccccc2)NC1=O` [Compound 21, Tyr-psi(CH2NH)-cyclo(DLys-Arg-Phe-4Pal-DTrp-Lys-Thr-Phe)], the Ki in test [1] (setting [7]) worked out at 0.02 ± 0.02 nM; in test [2] it was 112 ± 18.6 nM; in test [3], 271 ± 160 nM; in test [4], 5 nM; in test [5], 0.32 nM. For the same compound, the EC50 in test [6] (setting [8]) was 4.4 ± 3.7 nM. Also, the maximal effect (Emax) in test [6] was found to be 103 ± 0.2%.
